Consider 13 compounds from patent EP4800015A1, “AZABICYCLO DERIVATIVE AND PREPARATION METHOD THEREFOR, AND USE” (Zhejiang Hisun Pharmaceutical Co., Ltd., priority 2023, dated 2025).

Structures are written as SMILES.

In one assay the test system is RL95-2 cells. The assay is described as follows: Inhibition of RL95-2 cell proliferation (CellTiter-Glo). The class given is cell-based. The settings on record: Homo sapiens; RL95-2 cells (MSI-H), 120 hours. As to the method: The following method was used to determine the effect of the compounds of the present disclosure on RL95-2 cell proliferation. RL95-2 cells (MSI-H cells) were purchased from Cell Resource Center of Shanghai Institutes for Biological Sciences, Chinese Academy of Sciences, and cultured in DMEM/F12 medium (Gibco, catalog No. A4192001) containing 10% fetal bovine serum, 100 U penicillin, and 100 µg/mL streptomycin. Cell viability was determined by CellTiter-Glo® Luminescent Cell Viability Assay kit (Promega, catalog No. G7573).
(§1) The experiment was performed according to the steps of the kit manual, which is briefly described as follows: test compounds were first dissolved in DMSO to prepare 10 mM stock solutions, and then diluted with medium to prepare test samples, with final compound concentrations ranging from 10000 nM to 1.52 nM. Cells in logarithmic growth phase were seeded into 96-well cell culture plates at a density of 500 cells per well and cultured overnight at 37 °C in a 5% CO2 incubator, and then test compounds were added and cultivation continued for 120 hours. After the cultivation was completed, 50 µL of CellTiter-Glo detection reagent was added to each well, shaken for 5 minutes, and then left to stand for 10 minutes. Luminescence values of each well were read on a microplate reader using Luminescence mode. The percentage inhibition at each concentration point was calculated by comparison with the control group (0.1% DMSO), and then IC50 values for the compounds for inhibition of cell proliferation were obtained using nonlinear regression analysis of compound concentration logarithm versus inhibition rate in GraphPad Prism 9 software, as shown in Table 3.
The IC50 value results of the compounds of the present disclosure are represented by A, wherein "A" indicates 1 nM < IC50 ≤ 100 nM. Table 3 IC50 data for inhibition of RL95-2 cell proliferation by the compounds of the present disclosure
A general note: ATP-based viability assays read luminescence as a measure of living cells.

The next assay has as its target T1, recombinant human WRN (Homo sapiens, UniProt Q14191).
T1 construct: purchased BPS 101264
The experiment in a line: Inhibition of WRN enzyme activity (ATPase), ADP-Glo Kinase Assay. Type of assay: biochemical. The settings on record: WRN protein 5 nM, Flap 0.1 nM, ATP 30 µM; read-out: IC50. In outline: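 ATPase activity was measured by ADP-Glo luminescence after a 10-min room-temperature reaction with 30 µM ATP and 0.1 nM Flap26 oligonucleotide substrate. The 5 nM WRN had first been exposed to compound (0.004–1000 nM) for 15 min in pH 7.5 Tris buffer with 2 mM MgCl2. IC50 values came from log-concentration regression against the DMSO control.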
On the technique in general: In ADP-Glo the light output rises with the ADP produced.

A further assay has as its system SW48 cells. The experiment in a line: Inhibition of SW48 cell proliferation (CellTiter-Glo). Particulars: Homo sapiens; SW48 cells (MSI-H), 120 hours. The class given is cell-based. How it is done: The following method was used to determine the effect of the compounds of the present disclosure on SW48 cell proliferation. SW48 cells (MSI-H cells) were purchased from American ATCC cell bank and cultured in Leibovitz's L-15 medium (Gibco, catalog No. 11415064) containing 10% fetal bovine serum, 100 U penicillin, and 100 µg/mL streptomycin. Cell viability was determined by CellTiter-Glo® Luminescent Cell Viability Assay kit (Promega, catalog No. G7573).
as §1, with “in an air” for “in a 5% CO2”, “incubator,” for “incubator, and”, “completed, 40” for “completed, 50”, “Table 2.” for “Table 3.”
The IC50 value results of the compounds of the present disclosure are represented by A, wherein "A" indicates 1 nM < IC50 ≤ 100 nM. Table 2 IC50 data for inhibition of SW48 cell proliferation by the compounds of the present disclosure

T1 sequence (Q14191 whole entry): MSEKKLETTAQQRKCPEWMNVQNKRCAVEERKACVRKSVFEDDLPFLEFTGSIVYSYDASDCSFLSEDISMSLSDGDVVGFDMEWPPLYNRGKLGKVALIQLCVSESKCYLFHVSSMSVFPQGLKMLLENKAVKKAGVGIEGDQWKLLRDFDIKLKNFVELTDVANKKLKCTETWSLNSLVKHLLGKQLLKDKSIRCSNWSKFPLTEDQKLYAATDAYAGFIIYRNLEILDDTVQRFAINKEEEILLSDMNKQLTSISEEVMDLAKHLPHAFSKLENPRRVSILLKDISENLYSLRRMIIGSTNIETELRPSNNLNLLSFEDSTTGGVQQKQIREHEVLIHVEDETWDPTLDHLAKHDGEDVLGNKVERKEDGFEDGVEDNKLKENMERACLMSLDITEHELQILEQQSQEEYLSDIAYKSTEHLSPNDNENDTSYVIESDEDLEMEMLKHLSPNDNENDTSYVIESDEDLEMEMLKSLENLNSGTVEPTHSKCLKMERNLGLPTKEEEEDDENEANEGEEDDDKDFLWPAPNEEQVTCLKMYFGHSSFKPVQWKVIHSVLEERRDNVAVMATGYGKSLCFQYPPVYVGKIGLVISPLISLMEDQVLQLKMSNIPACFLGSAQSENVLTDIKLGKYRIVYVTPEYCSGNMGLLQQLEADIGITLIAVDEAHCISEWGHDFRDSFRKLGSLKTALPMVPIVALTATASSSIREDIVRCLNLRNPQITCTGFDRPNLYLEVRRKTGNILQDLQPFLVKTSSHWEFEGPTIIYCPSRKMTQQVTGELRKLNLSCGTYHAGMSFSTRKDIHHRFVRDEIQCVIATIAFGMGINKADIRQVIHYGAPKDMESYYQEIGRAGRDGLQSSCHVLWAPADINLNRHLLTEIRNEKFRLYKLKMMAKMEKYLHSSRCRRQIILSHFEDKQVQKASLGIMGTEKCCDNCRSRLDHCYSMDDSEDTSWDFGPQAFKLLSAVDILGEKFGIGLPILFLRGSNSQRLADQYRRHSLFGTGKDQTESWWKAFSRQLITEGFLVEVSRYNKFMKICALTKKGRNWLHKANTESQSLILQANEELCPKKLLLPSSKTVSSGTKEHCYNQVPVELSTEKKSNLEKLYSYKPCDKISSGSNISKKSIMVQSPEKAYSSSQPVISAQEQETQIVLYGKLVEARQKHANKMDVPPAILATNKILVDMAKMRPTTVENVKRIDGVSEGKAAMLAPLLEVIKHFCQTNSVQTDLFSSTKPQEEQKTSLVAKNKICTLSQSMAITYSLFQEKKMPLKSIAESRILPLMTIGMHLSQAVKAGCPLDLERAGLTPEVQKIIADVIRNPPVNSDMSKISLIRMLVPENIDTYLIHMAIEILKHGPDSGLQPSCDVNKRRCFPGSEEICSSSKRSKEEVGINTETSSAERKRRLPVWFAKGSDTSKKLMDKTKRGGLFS

Usually IC50 stands for the concentration needed to halve the response being measured. Turning to `CCc1c(N2CCN(C(=O)c3ncnc(C)c3O)CC2)c(=O)n2nc(C3=CC4CC(=O)CC4C3)nc2n1CC(=O)Nc1ccc(C(F)(F)F)cc1Cl` (stereo not shown) [Example 17, N-(2-chloro-4-(trifluoromethyl)phenyl)-2-(5-ethyl-6-(4-(5-hydroxy-6-methylpyrimidine-4-carbonyl)piperazin-1-yl)-7-oxo-2-(5-oxo-1,3a,4,5,6,6a-hexahydropentalen-2-yl)-[1,2,4]triazolo[1,5-a]pyrimidin-4(7H)-yl)acetamide], the IC50 in the assay on RL95-2 cells, on recombinant human WRN and with SW48 cells was 1 to 100 nM each time.

With `CCc1c(N2CCN(C(=O)c3ncnc(C)c3O)CC2)c(=O)n2nc(C3=CC4CC4C3)nc2n1CC(=O)Nc1ccc(C(F)(F)F)cc1Cl` (stereo not shown) [Example 18, 2-(2-(bicyclo[3.1.0]hex-2-en-3-yl)-5-ethyl-6-(4-(5-hydroxy-6-methylpyrimidine-4-carbonyl)piperazin-1-yl)-7-oxo-[1,2,4]triazolo[1,5-a]pyrimidin-4(7H)-yl)-N-(2-chloro-4-(trifluoromethyl)phenyl)acetamide], the IC50 with RL95-2 cells, on recombinant human WRN and in the assay on SW48 cells was 1 to 100 nM each time.

Turning to `CCc1c(N2CCN(C(=O)c3ncnc(C)c3O)CC2)c(=O)n2nc(-c3cc4ccccc4o3)nc2n1CC(=O)Nc1ccc(C(F)(F)F)cc1Cl` [Example 19, 2-(2-(benzofuran-2-yl)-5-ethyl-6-(4-(5-hydroxy-6-methylpyrimidine-4-carbonyl)piperazin-1-yl)-7-oxo-[1,2,4]triazolo[1,5-a]pyrimidin-4(7H)-yl)-N-(2-chloro-4-(trifluoromethyl)phenyl)acetamide], the IC50 in the assay with RL95-2 cells was 1 to 100 nM; at recombinant human WRN, under 1 nM; in the assay with SW48 cells, 1 to 100 nM.

Regarding `CCc1c(N2CCN(C(=O)c3ncccc3O)CC2)c(=O)n2nc(C3=CC4CC(=O)CC4C3)nc2n1CC(=O)Nc1ccc(C(F)(F)F)cc1Cl` (stereo not shown) [Example 22, N-(2-chloro-4-(trifluoromethyl)phenyl)-2-(5-ethyl-6-(4-(3-hydroxypicolinoyl)piperazin-1-yl)-7-oxo-2-(5-oxo-1,3a,4,5,6,6a-hexahydropentalen-2-yl)-[1,2,4]triazolo[1,5-a]pyrimidin-4(7H)-yl)acet amide], the IC50 with RL95-2 cells, at recombinant human WRN and in the assay with SW48 cells was 1 to 100 nM each time.

For the compound `CCc1c(N2CCN(C(=O)c3ncnc(C)c3O)CC2)c(=O)n2nc(C3=CCCCCC3)nc2n1CC(=O)Nc1ccc(C(F)(F)F)cc1C` [Example 47, 2-(2-(cyclohept-1-en-1-yl)-5-ethyl-6-(4-(5-hydroxy-6-methylpyrimidine-4-carbonyl)piperazin-1-yl)-7-oxo-[1,2,4]triazolo[1,5-a]pyrimidin-4(7H)-yl)-N-(2-methyl-4-(trifluoromethyl)phenyl) acetamide], the IC50 with RL95-2 cells, at recombinant human WRN and in the assay on SW48 cells was 1 to 100 nM in each case.

`CCc1c(N2CCN(C(=O)c3ncnc(C)c3O)CC2)c(=O)n2nc(C3=CCCCCC3)nc2n1CC(=O)Nc1ccc(C(F)(F)F)cc1F` [Example 49, 2-(2-(cyclohept-1-en-1-yl)-5-ethyl-6-(4-(5-hydroxy-6-methylpyrimidine-4-carbonyl)piperazin-1-yl)-7-oxo-[1,2,4]triazolo[1,5-a]pyrimidin-4(7H)-yl)-N-(2-fluoro-4-(trifluoromethyl)phenyl)acetamide]: the IC50 with RL95-2 cells, at recombinant human WRN and with SW48 cells was 1 to 100 nM in each case.

On to `CCc1c(N2CCN(C(=O)c3ncnc(C)c3O)CC2)c(=O)n2nc(C=C3CCC3)nc2n1CC(=O)Nc1ccc(S(F)(F)(F)(F)F)cc1` [Example 53, 2-(2-(cyclobutylidenemethyl)-5-ethyl-6-(4-(5-hydroxy-6-methylpyrimidine-4-carbonyl)piperazin-1-yl)-7-oxo-[1,2,4]triazolo[1,5-a]pyrimidin-4(7H)-yl)-N-(4-(pentafluoro-λ^6-sulfaneyl)phenyl)ace tamide], for which the half-inhibitory concentration (IC50) in the assay with RL95-2 cells, at recombinant human WRN and with SW48 cells was 1 to 100 nM throughout.

On to `CCc1c(N2CCN(C(=O)c3ncnc(C)c3O)CC2)c(=O)n2nc(-c3ccc4sccc4c3)nc2n1CC(=O)Nc1ccc(C(F)(F)F)cc1Cl` [Example 54, 2-(2-(benzo[b]thiophen-5-yl)-5-ethyl-6-(4-(5-hydroxy-6-methylpyrimidine-4-carbonyl)piperazin-1-yl)-7-oxo-[1,2,4]triazolo[1,5-a]pyrimidin-4(7H)-yl)-N-(2-chloro-4-(trifluoromethyl)phenyl)acet amide], for which the IC50 with RL95-2 cells, at recombinant human WRN and in the assay on SW48 cells was 1 to 100 nM each time.

Take `CCc1c(N2CCN(C(=O)c3ncnc(C)c3O)CC2)c(=O)n2nc(-c3ccc4ccsc4c3)nc2n1CC(=O)Nc1ccc(C(F)(F)F)cc1Cl` [Example 55, 2-(2-(benzo[b]thiophen-6-yl)-5-ethyl-6-(4-(5-hydroxy-6-methylpyrimidine-4-carbonyl)piperazin-1-yl)-7-oxo-[1,2,4]triazolo[1,5-a]pyrimidin-4(7H)-yl)-N-(2-chloro-4-(trifluoromethyl)phenyl)acet amide]: the IC50 with RL95-2 cells, at recombinant human WRN and in the assay with SW48 cells was 1 to 100 nM in each case.

Regarding `CCc1c(N2CCN(C(=O)c3ncnc(C)c3O)CC2)c(=O)n2nc(C3=CCCCOC3)nc2n1CC(=O)Nc1ccc(S(F)(F)(F)(F)F)cc1Cl` [Example 84, N-(2-chloro-4-(pentafluoro-λ^6-sulfaneyl)phenyl)-2-(5-ethyl-6-(4-(5-hydroxy-6-methylpyrimidine-4-carbonyl)piperazin-1-yl)-7-oxo-2-(2,5,6,7-tetrahydrooxepin-3-yl)-[1,2,4]triazolo[1,5-a]pyrimidin-4(7H)-yl)acetamide], the IC50 in the assay with RL95-2 cells, on recombinant human WRN and in the assay on SW48 cells was 1 to 100 nM each time.

With `CCc1c(N2CCN(C(=O)c3ncnc(C)c3O)CC2)c(=O)n2nc(-c3ccc4occc4c3)nc2n1CC(=O)Nc1ccc(S(F)(F)(F)(F)F)cc1Cl` [Example 85, 2-(2-(Benzofuran-5-yl)-5-ethyl-6-(4-(5-hydroxy-6-methylpyrimidine-4-carbonyl)piperazin-1-yl)-7-oxo-[1,2,4]triazolo[1,5-a]pyrimidin-4(7H)-yl)-N-(2-chloro-4-(pentafluoro-λ^6-sulfaneyl)phenyl) acetamide], the IC50 in the assay with RL95-2 cells, on recombinant human WRN and with SW48 cells was 1 to 100 nM each time.

Consider `CCc1c(N2CCN(C(=O)c3ncnc(C)c3O)CC2)c(=O)n2nc(C3=CCC4(CC3)COC4)nc2n1CC(=O)Nc1ccc(S(F)(F)(F)(F)F)cc1Cl` [Example 175, N-(2-chloro-4-(pentafluoro-λ6-sulfaneyl)phenyl)-2-(5-ethyl-6-(4-(5-hydroxy-6-methylpyrimidine-4-carbonyl)piperazin-1-yl)-7-oxo-2-(2-oxaspiro[3.5]non-6-en-7-yl)-[1,2,4]triazolo[1,5-a]pyrimidin-4(7H)-yl)acetamide], for which the IC50 at recombinant human WRN and with SW48 cells was 1 to 100 nM throughout.

Take `CCc1c(N2CCN(C(=O)c3ncnc(C)c3O)CC2)c(=O)n2nc(C3=CCC4(CC3)COC4)nc2n1CC(=O)Nc1ccc(S(F)(F)(F)(F)F)cc1` [Example 176, 2-(5-ethyl-6-(4-(5-hydroxy-6-methylpyrimidine-4-carbonyl)piperazin-1-yl)-7-oxo-2-(2-oxaspiro[3.5]non-6-en-7-yl)-[1,2,4]triazolo[1,5-a]pyrimidin-4(7H)-yl)-N-(4-(pentafluoro-λ^6-sulfaneyl)phenyl)acetamide]: the half-inhibitory concentration (IC50) on recombinant human WRN and in the assay on SW48 cells was 1 to 100 nM throughout.
